Results published in ChEMBL document CHEMBL1201862, “PubChem BioAssay data set” (2004).
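The compound was tested at five concentrations on cells cultured in 96-well plates, with a 48-hour exposure period. GI50 is the concentration that inhibits growth by half.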 The source made the active and inactive calls. No stated cut-off is given here; in the data, active = GI50 up to about 1.1 µM and inactive = higher.

How the values were obtained:
Test in all cases: NCI tumour cell line growth inhibition, 48 h
786-0 = system: 786-0
CAKI-1 = system: CAKI-1
HCT-116 = system: HCT-116
IGROV-1 = system: IGROV-1
MOLT-4 = system: MOLT-4
NCI-H226 = system: NCI-H226
NCI-H522 = system: NCI-H522
OVCAR-5 = system: OVCAR-5
SN12C = system: SN12C
SR = system: SR
TK-10 = system: TK-10
UACC-62 = system: UACC-62
UO-31 = system: UO-31
A498 = system: A498
HOP-62 = system: HOP-62
NCI-H460 = system: NCI-H460
OVCAR-3 = system: OVCAR-3

Measured: GI50

COC(=O)C(=O)C(C(=O)C(=O)Nc1cc(C)ccc1C)c1nc2ccc(C(=O)c3ccccc3)cc2nc1O (stereo unspecified)
inactive: 786-0 > 100 µM | CAKI-1 27.5 µM | HCT-116 > 100 µM | IGROV-1 > 100 µM | MOLT-4 48.9 µM | NCI-H226 62.1 µM | NCI-H522 36.3 µM | OVCAR-5 43.1 µM | SN12C > 100 µM | SR 68.5 µM | TK-10 > 100 µM | UACC-62 37.2 µM | UO-31 52.7 µM

CC(C)NCCCC(C)Nc1ccnc2ccc3nn(C)nc3c12 (stereo unspecified)
inactive: 786-0 44.2 µM | A498 > 100 µM | CAKI-1 60.5 µM | HCT-116 34.8 µM | HOP-62 52.7 µM | IGROV-1 > 100 µM | MOLT-4 35 µM | NCI-H226 31.8 µM | NCI-H460 38.6 µM | NCI-H522 > 100 µM | OVCAR-5 75.7 µM | SN12C 61.8 µM | SR 40.1 µM | TK-10 > 100 µM | UACC-62 > 100 µM | UO-31 33.7 µM

N#CC(C(=O)/C(=N/NC(=O)c1ccccc1O)C(C#N)c1ccccc1)c1ccccc1 (stereo unspecified)
inactive: 786-0 > 100 µM | A498 > 100 µM | HCT-116 > 100 µM | HOP-62 > 100 µM | IGROV-1 > 100 µM | NCI-H226 > 100 µM | NCI-H460 > 100 µM | OVCAR-3 > 100 µM | SN12C > 100 µM | TK-10 > 100 µM | UACC-62 > 100 µM | UO-31 > 100 µM

C=C1CC(CC(=O)C(C)CC2CC(=C)C(=O)O2)OC1=O (stereo unspecified)
inactive: 786-0 20.3 µM | A498 46.5 µM | HCT-116 12.1 µM | HOP-62 > 100 µM | IGROV-1 32.8 µM | MOLT-4 11.5 µM | NCI-H460 32.1 µM | OVCAR-3 17.7 µM | OVCAR-5 65.9 µM | SN12C 16.7 µM | SR 3.3 µM | TK-10 19.1 µM | UACC-62 15.8 µM | UO-31 > 100 µM

Cc1nc(N)sc1C(=O)/C=C/c1ccc([N+](=O)[O-])cc1
inactive: 786-0 > 100 µM | A498 > 100 µM | CAKI-1 > 100 µM | HOP-62 > 100 µM | IGROV-1 > 100 µM | MOLT-4 > 100 µM | NCI-H460 > 100 µM | NCI-H522 > 100 µM | OVCAR-3 > 100 µM | OVCAR-5 > 100 µM | SN12C > 100 µM | TK-10 > 100 µM | UACC-62 > 100 µM | UO-31 > 100 µM

CCOC(=O)c1c2ccc(/C=C/C(=O)OC)ccc-2c(C(=O)OCC)c1N
inactive: 786-0 > 100 µM | A498 6.52 µM | CAKI-1 > 100 µM | IGROV-1 > 100 µM | MOLT-4 > 100 µM | NCI-H226 > 100 µM | NCI-H460 > 100 µM | NCI-H522 > 100 µM | OVCAR-3 > 100 µM | OVCAR-5 > 100 µM | TK-10 > 100 µM | UACC-62 > 100 µM | UO-31 > 100 µM

Nc1ccc2ncc(NCc3ccc(F)cc3)nc2c1
inactive: 786-0 > 100 µM | CAKI-1 71.9 µM | HCT-116 > 100 µM | HOP-62 40.6 µM | MOLT-4 41.9 µM | NCI-H226 40.9 µM | NCI-H460 74.6 µM | NCI-H522 83.2 µM | OVCAR-3 38.9 µM | OVCAR-5 > 100 µM | SN12C 87.5 µM | SR 70 µM | TK-10 97.3 µM | UACC-62 54.2 µM | UO-31 16.4 µM

C[N+](C)(C)CC(=O)N/N=C(\C(=O)Nc1ccc(Cl)cc1)C1C(=O)N(c2ccccc2)N=C1N (stereo unspecified)
inactive: 786-0 > 100 µM | A498 > 100 µM | CAKI-1 > 100 µM | HCT-116 > 100 µM | HOP-62 > 100 µM | IGROV-1 > 100 µM | MOLT-4 > 100 µM | NCI-H460 > 100 µM | NCI-H522 > 100 µM | OVCAR-3 > 100 µM | OVCAR-5 > 100 µM | SN12C > 100 µM | TK-10 > 100 µM | UACC-62 > 100 µM | UO-31 > 100 µM

COC(=O)C(C(=O)Cc1ccccc1[N+](=O)[O-])C(=O)OC
inactive: 786-0 > 100 µM | CAKI-1 > 100 µM | HCT-116 > 100 µM | HOP-62 > 100 µM | IGROV-1 > 100 µM | MOLT-4 > 100 µM | NCI-H226 > 100 µM | NCI-H460 > 100 µM | NCI-H522 > 100 µM | OVCAR-3 > 100 µM | SN12C > 100 µM | SR 23.9 µM | TK-10 > 100 µM | UACC-62 > 100 µM | UO-31 > 100 µM

O=C1C[C@H]2CCCN2[C@@H](c2ccccc2)C1
inactive: 786-0 > 100 µM | A498 > 100 µM | CAKI-1 > 100 µM | HCT-116 > 100 µM | HOP-62 > 100 µM | IGROV-1 > 100 µM | MOLT-4 > 100 µM | NCI-H226 > 100 µM | NCI-H460 > 100 µM | NCI-H522 > 100 µM | OVCAR-3 > 100 µM | OVCAR-5 > 100 µM | SN12C > 100 µM | TK-10 > 100 µM | UACC-62 > 100 µM | UO-31 > 100 µM

COc1cc2c(cn1)[nH]c1ccccc12
inactive: 786-0 > 100 µM | CAKI-1 94.2 µM | HCT-116 > 100 µM | HOP-62 > 100 µM | IGROV-1 > 100 µM | MOLT-4 > 100 µM | NCI-H226 > 100 µM | NCI-H460 > 100 µM | NCI-H522 61.2 µM | OVCAR-3 > 100 µM | OVCAR-5 > 100 µM | SN12C > 100 µM | SR > 100 µM | TK-10 > 100 µM | UACC-62 53 µM | UO-31 > 100 µM

O=C1NC(=O)C2C1c1[nH]c3ccccc3c1C1CCCC12 (stereo unspecified)
inactive: 786-0 5.02 µM | A498 4.76 µM | IGROV-1 14.1 µM | MOLT-4 2.44 µM | NCI-H226 3.61 µM | NCI-H460 4.17 µM | OVCAR-3 1.83 µM | OVCAR-5 > 100 µM | SN12C 6.87 µM | SR 2.81 µM | TK-10 8.75 µM | UACC-62 5.47 µM | UO-31 6.55 µM

NC(=S)N/N=C1/C(=O)N(c2ccc(Cl)cc2Cl)C(=O)C(=O)C1c1nc2ccccc2s1 (stereo unspecified)
inactive: 786-0 > 100 µM | CAKI-1 > 100 µM | HCT-116 > 100 µM | HOP-62 > 100 µM | IGROV-1 > 100 µM | MOLT-4 52.1 µM | NCI-H226 > 100 µM | NCI-H460 > 100 µM | NCI-H522 > 100 µM | OVCAR-3 > 100 µM | OVCAR-5 > 100 µM | SN12C > 100 µM | TK-10 > 100 µM | UACC-62 > 100 µM | UO-31 > 100 µM

NC(=S)N/N=C/C(=C/Nc1ccccc1)[N+](=O)[O-]
inactive: 786-0 > 100 µM | CAKI-1 > 100 µM | HCT-116 > 100 µM | HOP-62 > 100 µM | IGROV-1 > 100 µM | NCI-H226 53 µM | NCI-H522 > 100 µM | OVCAR-3 > 100 µM | OVCAR-5 > 100 µM | SN12C > 100 µM | TK-10 > 100 µM | UACC-62 > 100 µM

O=c1[nH]cnc2c(COCCO)c[nH]c12
inactive: 786-0 > 100 µM | A498 > 100 µM | CAKI-1 > 100 µM | HOP-62 > 100 µM | IGROV-1 > 100 µM | MOLT-4 > 100 µM | NCI-H226 > 100 µM | NCI-H460 > 100 µM | NCI-H522 > 100 µM | OVCAR-3 > 100 µM | OVCAR-5 > 100 µM | SN12C > 100 µM | SR > 100 µM | TK-10 > 100 µM | UACC-62 > 100 µM | UO-31 > 100 µM

CCCCCCCC(=O)OCC1OC(n2cc(F)c(=O)[nH]c2=O)C(NC(=O)OCc2ccccc2)C(O)C1O (stereo unspecified)
inactive: 786-0 > 100 µM | A498 > 100 µM | CAKI-1 > 100 µM | HCT-116 > 100 µM | HOP-62 > 100 µM | IGROV-1 > 100 µM | MOLT-4 27.9 µM | NCI-H460 > 100 µM | NCI-H522 26.2 µM | OVCAR-3 > 100 µM | SN12C 32.9 µM | SR 31.8 µM | TK-10 > 100 µM | UACC-62 32.1 µM | UO-31 > 100 µM

O=C(Nc1cc(Cl)cc(Cl)c1)/C(Cc1nc2ccccc2nc1O)=N/NC(=O)c1ccncc1
inactive: 786-0 > 100 µM | A498 > 100 µM | CAKI-1 > 100 µM | HCT-116 > 100 µM | HOP-62 > 100 µM | IGROV-1 > 100 µM | MOLT-4 > 100 µM | NCI-H460 > 100 µM | OVCAR-3 > 100 µM | OVCAR-5 67 µM | TK-10 > 100 µM | UACC-62 > 100 µM | UO-31 > 100 µM

CN(C)CC1CCC(CN(C)C)C1=NO (stereo unspecified)
inactive: 786-0 > 100 µM | CAKI-1 > 100 µM | HCT-116 > 100 µM | HOP-62 > 100 µM | IGROV-1 > 100 µM | MOLT-4 > 100 µM | NCI-H460 > 10 µM | NCI-H522 > 100 µM | OVCAR-3 > 100 µM | OVCAR-5 > 100 µM | SN12C > 100 µM | SR 29 µM | TK-10 > 100 µM | UACC-62 > 100 µM | UO-31 > 100 µM

CC(C)N1CCOC(c2ccc(O)c(O)c2)C1 (stereo unspecified)
inactive: 786-0 > 100 µM | CAKI-1 > 100 µM | HOP-62 > 100 µM | IGROV-1 > 100 µM | MOLT-4 > 100 µM | NCI-H460 > 100 µM | NCI-H522 > 100 µM | OVCAR-3 > 100 µM | OVCAR-5 > 100 µM | SN12C > 100 µM | TK-10 > 100 µM | UACC-62 > 100 µM | UO-31 > 100 µM
